Measured values taken from patent US20260373149A1, “MIXED LINEAGE KINASE DOMAIN LIKE PSEUDOKINASE (MLKL) ACTIVATORS” (Trustees of Tufts College, priority 2022, published 2026).
Residue numbers refer to the chain shown, from its start.

Assays:
Type in all cases: cell-based
[1] = target: T1, M272W mutant of MLKL (Mus musculus, UniProt Q9D2Y4, M272W); assay: Viability of Mlkl-/- MEFs expressing M272W mutant of mouse MLKL-FLAG (CellTiter-Glo); conditions: 5 μM; 50 ng/ml Dox 6 hr, then 24 hr; FIG. 6
T1 sequence (Q9D2Y4 1-472 M272W): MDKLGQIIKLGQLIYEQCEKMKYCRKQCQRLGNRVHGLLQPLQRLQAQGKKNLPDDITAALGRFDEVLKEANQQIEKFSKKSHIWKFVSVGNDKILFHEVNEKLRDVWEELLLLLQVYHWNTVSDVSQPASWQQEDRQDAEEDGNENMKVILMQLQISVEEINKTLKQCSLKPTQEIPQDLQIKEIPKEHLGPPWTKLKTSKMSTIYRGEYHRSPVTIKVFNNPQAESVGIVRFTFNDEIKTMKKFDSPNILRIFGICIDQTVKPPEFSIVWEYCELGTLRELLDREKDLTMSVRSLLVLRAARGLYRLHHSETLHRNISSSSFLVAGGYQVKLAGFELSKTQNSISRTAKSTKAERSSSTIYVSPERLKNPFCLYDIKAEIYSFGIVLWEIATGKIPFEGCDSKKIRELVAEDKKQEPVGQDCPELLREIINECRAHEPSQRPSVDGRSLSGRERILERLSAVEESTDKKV
Description: (§1) Plots show cell viability (%) versus MLKL mutant expressed. […] Cells conditionally expressing wild type and mutants of MLKL have been generated. M272W mutant of MLKL is active but predicted not to bind to MLKL activators. S345A/S347A mutant of MLKL lacks RIPK3 phosphorylation sites. Cells were treated with 50 ng/ml of Dox for 6 hr followed by MLKL activators (left panels) or TNFα/IDN6556 (right panels). The latter combination is a canonical inducer of necroptosis through RIPK3 activation. 5 μM ALD-6-85 and SS-1-127 were used in top and bottom panels, respectively.
(§2) The activity of ALD-6-85 was tested in the cells expressing either wild type MLKL or mutant expressing a bulky Trp residue in place of M272 gatekeeper residue. This mutation is expected to disrupt binding of the drug to MLKL. […] To ensure that observed reduction in killing is not due to the intrinsically lower pro-death activity of M272W mutant, cells were also stimulated with TNF+IDN, inducing necroptosis through a canonical TNFR1-RIPK1-RIPK3-MLKL pathway. […] We also generated MEFs expressing S345A, S347A double mutant of mouse MLKL.

[2] = target: T2, E239Q mutant of mouse MLKL (Mus musculus, UniProt Q9D2Y4, E239Q); assay: Viability of Mlkl-/- MEFs expressing wild type or E239Q mutant of mouse MLKL-FLAG (CellTiter-Glo); conditions: E239Q vs wild type mouse MLKL; 50 ng/ml Dox 6 hr, then compound 24 hr; FIG. 7
T2 construct: expressed in transfected cells; host or cells: Mlkl-/- mouse embryonic fibroblasts (MEFs), lentiviral, doxycycline-inducible
T2 sequence (Q9D2Y4 1-472 E239Q): T1 sequence (Q9D2Y4 1-472 M272W) with E239Q, W272M
Description: Mlkl^−/− mouse embryonic fibroblasts (MEFs) were stably infected with lentiviral vector encoding wild type and E239Q mutant of mouse MLKL-FLAG under the control of the Doxocyclin (Dox)-inducible promoter. […] After 24 hr, cell viability at the end of treatment was determined using CellTiter-Glo Viability assay (Promega).

[3] = target: T3, S345A/S347A mutant of MLKL (Mus musculus, UniProt Q9D2Y4, S345A/S347A); assay: Viability of Mlkl-/- MEFs expressing S345A/S347A mutant of mouse MLKL-FLAG (CellTiter-Glo); conditions: 5 μM; 50 ng/ml Dox 6 hr, then 24 hr; FIG. 6
T3 sequence (Q9D2Y4 1-472 S345A/S347A): T1 sequence (Q9D2Y4 1-472 M272W) with W272M, S345A, S347A
Description: as §1, §2

[4] = system: transformed mouse embryonic fibroblasts with genetic deletions of RIPK3 and MLKL genes; assay: Viability of transformed mouse embryonic fibroblasts with genetic deletions of RIPK3 and MLKL genes; conditions: MEFs with genetic deletions of RIPK3 and MLKL; FIG. 3
Description: Viability of transformed mouse embryonic fibroblasts with genetic deletions of RIPK3 and MLKL genes and treated with SS-1-127 are shown. Affinities of select MLKL activators against recombinant human RIPK1, RIPK3, and MLKL were determined by DiscoveRx.
The compounds described herein are capable of directly activating the downstream executioner of necroptosis, MLKL, thus bypassing a requirement for RIPK3 (FIG. 2).

Row | Structure (SMILES) | Death in cells expressing M272W MLKL compared to wild type [1] | Activity / cell death with E239Q mutation compared to wild type MLKL [2] | Effect of S345A, S347A double mutation on killing by SS-1-127 [3] | Cell death induced by SS-1-127: dependence on MLKL and RIPK3 [4]
1 | CCN(CC)CCOc1ccc(Nc2ncc3cc(-c4ccc(O)c([N+](=O)[O-])c4)c(=O)n(C)c3n2)cc1 [ALD-6-85] | induces reduced death in the cells expressing M272W MLKL compared to wild type protein |  |  | 
2 | CCN(CC)CCOc1ccc(Nc2ncc3cc(-c4ccc(O)c(C#N)c4)c(=O)n(C)c3n2)cc1 [SS-1-127, 5-(2-((4-(2-(Diethylamino)ethoxy)phenyl)amino)-8-methyl-7-oxo-7,8-dihydropyrido[2,3-d]pyrimidin-6-yl)-2-hydroxybenzonitrile] |  | much improved activity when combined with E239Q mutation compared to wild type MLKL | minor effect on killing | dependent on MLKL expression and independent from RIPK3
